In patent US11590116B2 (THERAVANCE BIOPHARMA R&D IP, LLC, priority 2019, dated 2023):

Tests used:
[1] = molecular target: T1, recombinant human ALK5 (TGF-βR1) protein (Homo sapiens, UniProt P36897); test: Biochemical ALK5 (TGF-βR1) assay to measure pKi (LANCE Ultra ULight kinase assay); details: apparent pKi from pIC50 by Cheng-Prusoff, read-out: ALK5 pKi (converted)
T1 construct: purchased Life Technologies PR9075A
T1 sequence (P36897 34-503): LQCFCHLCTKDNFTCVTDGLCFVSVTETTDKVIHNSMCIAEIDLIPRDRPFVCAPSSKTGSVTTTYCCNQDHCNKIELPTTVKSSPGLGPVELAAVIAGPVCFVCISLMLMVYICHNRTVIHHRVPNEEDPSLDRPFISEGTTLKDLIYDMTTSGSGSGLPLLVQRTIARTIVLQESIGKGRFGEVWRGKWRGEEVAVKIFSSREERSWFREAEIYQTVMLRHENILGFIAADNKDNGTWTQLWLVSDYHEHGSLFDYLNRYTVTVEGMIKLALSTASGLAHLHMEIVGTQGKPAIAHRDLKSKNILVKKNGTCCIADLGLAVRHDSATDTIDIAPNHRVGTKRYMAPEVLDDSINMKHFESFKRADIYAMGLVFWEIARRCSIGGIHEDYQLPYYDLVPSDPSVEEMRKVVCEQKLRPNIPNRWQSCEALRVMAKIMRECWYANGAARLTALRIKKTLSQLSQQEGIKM
Method in brief: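 Compounds (10 μM to 25 pM) were preincubated 60 min at room temperature with enzyme, then reactions were started with ATP (125 μM stock, 5× final) and run 60 min at 37 °C. EDTA-containing Eu-anti-phospho-Topo IIα (Thr1342) antibody stopped the reaction; TR-FRET read at 665 nm. pIC50 from 4-parameter fit, converted to pKi via Cheng-Prusoff.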

[2] = test system: TGF-β-stimulated SMAD3 phosphorylation in BEAS-2B cells; test: Cellular ALK5 potency assay, inhibition of TGF-β stimulated pSMAD3 formation in BEAS-2B cells; assay type: cell-based; details: Homo sapiens; inhibition of TGF-β stimulated pSMAD3 formation, BEAS-2B cells; read-out: BEAS2B pIC50 (converted)
Method in brief: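 pSMAD3 was quantified by AlphaLISA in BEAS-2B lysates after 10 ng/mL TGF-β (final) for 30 min. Before stimulation, cells received compound for 1 h at 37° C in supplemented HBSS. Values are pIC50, relative to TGF-β-stimulated cells without compound.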

SMILES	Ki [1]	IC50 [2]
Cc1nc(-c2[nH]cnc2-c2ccc3ncc(NCCN4CCCC4)cc3n2)ccc1F [Compound 568, 6-[5-(5-fluoro-6-methyl-2-pyridyl)-1H-imidazol-4-yl]-N-(2-pyrrolidin-1-ylethyl)-1,5-naphthyridin-3-amine]	0.0398 to 0.316 nM	25.1 to 158 nM
Cc1nc(-c2n[nH]cc2-c2ccc3ncc(-c4cnn([C@@H]5CCC[C@@H]5N)c4)cc3n2)ccc1F [Compound 569, (1S,2R)-2-[4-[6-[3-(5-fluoro-6-methyl-2-pyridyl)-1H-pyrazol-4-yl]-1,5-naphthyridin-3-yl]pyrazol-1-yl]cyclopentanamine]	0.0398 to 0.316 nM	25.1 to 158 nM
Cc1cccc(-c2n[nH]cc2-c2ccc3ncc(-c4cnn5c4NCC5)cc3n2)n1 [Compound 570, 7-(2,3-dihydro-1H-imidazo[1,2-b]pyrazol-7-yl)-2-[3-(6-methyl-2-pyridyl)-1H-pyrazol-4-yl]-1,5-naphthyridine]	< 0.0316 nM	< 20 nM
Cc1cccc(-c2n[nH]cc2-c2ccc3ncc(-c4cnn(CCN5CCCC5=O)c4)cc3n2)n1 [Compound 571, 1-[2-[4-[6-[3-(6-methyl-2-pyridyl)-1H-pyrazol-4-yl]-1,5-naphthyridin-3-yl]pyrazol-1-yl]ethyl]pyrrolidin-2-one]	< 0.0316 nM	25.1 to 158 nM
Cc1cccc(-c2[nH]cnc2-c2ccc3ncc(-c4cnn(CCN)c4)cc3c2)n1 [Compound 572, 2-[4-[6-[5-(6-methyl-2-pyridyl)-1H-imidazol-4-yl]-3-quinolyl]pyrazol-1-yl]ethanamine]	0.0398 to 0.316 nM	25.1 to 158 nM
Cc1cccc(-c2[nH]cnc2-c2ccc3ncc(NCCN4CCCC4)cc3n2)n1 [Compound 573, 6-[5-(6-methyl-2-pyridyl)-1H-imidazol-4-yl]-N-(2-pyrrolidin-1-ylethyl)-1,5-naphthyridin-3-amine]	0.0398 to 0.316 nM	25.1 to 158 nM
Cc1nc(-c2n[nH]cc2-c2ccc3ncc(-c4cc5n(n4)CCN5)cc3n2)ccc1F [Compound 574, 7-(2,3-dihydro-1H-imidazo[1,2-b]pyrazol-6-yl)-2-[3-(5-fluoro-6-methyl-2-pyridyl)-1H-pyrazol-4-yl]-1,5-naphthyridine]	< 0.0316 nM	< 20 nM
Cc1nc(-c2nc3ccccn3c2-c2ccc3ncc(-c4cnn(C5CCCNC5)c4)cc3n2)ccc1F (stereo not shown) [Compound 576, 2-[2-(5-fluoro-6-methyl-2-pyridyl)imidazo[1,2-a]pyridin-3-yl]-7-[1-(3-piperidyl)pyrazol-4-yl]-1,5-naphthyridine]	0.0398 to 0.316 nM	25.1 to 158 nM
Cc1cccc(-c2[nH]cnc2-c2ccc3ncc(-c4cncc(C(=O)OC5CNC5)c4)cc3c2)n1 [Compound 577, azetidin-3-yl 5-[6-[5-(6-methyl-2-pyridyl)-1H-imidazol-4-yl]-3-quinolyl]pyridine-3-carboxylate]	0.0398 to 0.316 nM	200 to 1260 nM
Cc1cccc(-c2c(-c3ccc4ncc(N5CCC(N6CCN(C)CC6)CC5)cc4c3)nnn2Cc2ccccc2)n1 [Compound 578, 6-[1-benzyl-5-(6-methyl-2-pyridyl)triazol-4-yl]-3-[4-(4-methylpiperazin-1-yl)-1-piperidyl]quinoline]	3.98 to 31.6 nM	1580 to 10000 nM
Cc1cccc(-c2[nH]cnc2-c2ccc3ncc(NC(=O)C4CNC4)cc3c2)n1 [Compound 579, N-[6-[5-(6-methyl-2-pyridyl)-1H-imidazol-4-yl]-3-quinolyl]azetidine-3-carboxamide]	0.0398 to 0.316 nM	1580 to 10000 nM
Cc1cccc(-c2n[nH]cc2-c2ccc3ncc(N4CCCNCC4)cc3c2)n1 [Compound 580, 3-(1,4-diazepan-1-yl)-6-[3-(6-methyl-2-pyridyl)-1H-pyrazol-4-yl]quinoline]	0.0398 to 0.316 nM	25.1 to 158 nM
Cc1cccc(-c2[nH]cnc2-c2ccc3ncc(-c4cccc(N5CCNCC5)c4)cc3c2)n1 [Compound 581, 6-[5-(6-methyl-2-pyridyl)-1H-imidazol-4-yl]-3-(3-piperazin-1-ylphenyl)quinoline]	< 0.0316 nM	25.1 to 158 nM
COC(=O)c1coc(-c2cnc3ccc(-c4c[nH]nc4-c4cccc(C)n4)nc3c2)n1 [Compound 582, methyl 2-[6-[3-(6-methyl-2-pyridyl)-1H-pyrazol-4-yl]-1,5-naphthyridin-3-yl]oxazole-4-carboxylate]	< 0.0316 nM	25.1 to 158 nM
Cc1cccc(-c2[nH]cnc2-c2ccc3ncc(N4CCC(NC(=O)C5CCNCC5)CC4)cc3c2)n1 [Compound 583, N-[1-[6-[5-(6-methyl-2-pyridyl)-1H-imidazol-4-yl]-3-quinolyl]-4-piperidyl]piperidine-4-carboxamide]	0.0398 to 0.316 nM	1580 to 10000 nM
Cc1cccc(-c2nnn(Cc3ccccc3)c2-c2ccc3ncc(NCCN4CCN(C(C)C)CC4)cc3c2)n1 [Compound 584, 6-[3-benzyl-5-(6-methyl-2-pyridyl)triazol-4-yl]-N-[2-(4-isopropylpiperazin-1-yl)ethyl]quinolin-3-amine]	0.0398 to 0.316 nM	200 to 1260 nM
Cc1cccc(-c2n[nH]cc2-c2ccc3ncc(-c4cccnc4O)cc3n2)n1 [Compound 585, 3-[6-[3-(6-methyl-2-pyridyl)-1H-pyrazol-4-yl]-1,5-naphthyridin-3-yl]pyridin-2-ol]	< 0.0316 nM	25.1 to 158 nM
Cc1cccc(-c2n[nH]cc2-c2ccc3ncc(N4CC(C)(N(C)C)C4)cc3n2)n1 [Compound 586, N,N,3-trimethyl-1-[6-[3-(6-methyl-2-pyridyl)-1H-pyrazol-4-yl]-1,5-naphthyridin-3-yl]azetidin-3-amine]	< 0.0316 nM	25.1 to 158 nM
Cc1cccc(-c2nc3ccccn3c2-c2ccc3ncc(-c4cnn5c4CNCC5)cc3n2)n1 [Compound 587, 2-(2-(6-methylpyridin-2-yl)imidazo[1,2-a]pyridin-3-yl)-7-(4,5,6,7-tetrahydropyrazolo[1,5-a]pyrazin-3-yl)-1,5-naphthyridine]	0.0398 to 0.316 nM	25.1 to 158 nM
Cc1cccc(-c2n[nH]cc2-c2ccc3ncc(C4=CCNC4)cc3n2)n1 [Compound 588, 7-(2,5-dihydro-1H-pyrrol-3-yl)-2-[3-(6-methyl-2-pyridyl)-1H-pyrazol-4-yl]-1,5-naphthyridine]	0.0398 to 0.316 nM	< 20 nM
CNCCn1cc(-c2cnc3ccc(-c4c[nH]nc4-c4cccc(C)n4)cc3c2)cn1 [Compound 589, N-methyl-2-[4-[6-[3-(6-methyl-2-pyridyl)-1H-pyrazol-4-yl]-3-quinolyl]pyrazol-1-yl]ethanamine]	< 0.0316 nM	< 20 nM
Cc1cccc(-c2[nH]cnc2-c2ccc3ncc(C4=CCC(NCC5CCC(=O)O5)CC4)cc3c2)n1 (stereo not shown) [Compound 590, 5-[[[4-[6-[5-(6-methyl-2-pyridyl)-1H-imidazol-4-yl]-3-quinolyl]cyclohex-3-en-1-yl]amino]methyl]tetrahydrofuran-2-one]	0.0398 to 0.316 nM	25.1 to 158 nM
Cc1cccc(-c2n[nH]cc2-c2ccc3ncc(-c4ccc[nH]4)cc3n2)n1 [Compound 591, 2-[3-(6-methyl-2-pyridyl)-1H-pyrazol-4-yl]-7-(1H-pyrrol-2-yl)-1,5-naphthyridine]	< 0.0316 nM	< 20 nM
Cc1cccc(-c2nc3ccccn3c2-c2ccc3ncc(-c4cn[nH]c4)cc3c2)n1 [Compound 592, 6-[2-(6-methyl-2-pyridyl)imidazo[1,2-a]pyridin-3-yl]-3-(1H-pyrazol-4-yl)quinoline]	< 0.0316 nM	< 20 nM
Cc1cccc(-c2[nH]cnc2-c2ccc3ncc(NCCN(C)C4CNC4)cc3c2)n1 [Compound 593, N′-(azetidin-3-yl)-N′-methyl-N-[6-[5-(6-methyl-2-pyridyl)-1H-imidazol-4-yl]-3-quinolyl]ethane-1,2-diamine]	0.0398 to 0.316 nM	200 to 1260 nM
Cc1cccc(-c2[nH]cnc2-c2ccc3ncc(N)cc3c2)n1 [Compound 594, 6-[5-(6-methyl-2-pyridyl)-1H-imidazol-4-yl]quinolin-3-amine]	0.0398 to 0.316 nM	< 20 nM
Cc1cccc(-c2n[nH]cc2-c2ccc3ncc(-c4cccnc4)cc3n2)n1 [Compound 595, 2-[3-(6-methyl-2-pyridyl)-1H-pyrazol-4-yl]-7-(3-pyridyl)-1,5-naphthyridine]	< 0.0316 nM	< 20 nM
Cc1cccc(-c2n[nH]cc2-c2ccc3ncc(-c4cc(C)nn4C)cc3n2)n1 [Compound 596, 7-(2,5-dimethylpyrazol-3-yl)-2-[3-(6-methyl-2-pyridyl)-1H-pyrazol-4-yl]-1,5-naphthyridine]	< 0.0316 nM	< 20 nM
Cc1cccc(-c2n[nH]cc2-c2ccc3ncc(NCCN4CCCC4)cc3n2)n1 [Compound 597, 6-[3-(6-methyl-2-pyridyl)-1H-pyrazol-4-yl]-N-(2-pyrrolidin-1-ylethyl)-1,5-naphthyridin-3-amine]	< 0.0316 nM	25.1 to 158 nM
